What was measured:
NCI-H226 cells = assay: NCI-H226 proliferation assay (in house); assay type: cell-based; details: Homo sapiens, 120 h, 5 days, Cell TiterGlo, 20-point 1:2 dilution from 20 μM
Procedure: NCI-H226 Proliferation Assay
NCI-H226 cells were obtained from American Type Culture Collection (ATCC, CRL-5826) and cultured in RPMI 1640 with L-glutamine (Corning, 10-040-CV) supplemented with 10% fetal bovine serum (Gibco, 10438-026) and 1% penicillin-streptomycin (Gibco, 15070063). Cells were trypsinized, resuspended in growth medium, and diluted to a concentrated of 10,000 cells/mL. 500 cells, 50 μL of cell suspension, per well were then plated in a white 384-well plate (Corning) and incubated at 37° C., 5% CO2. After 24 hours incubation, 100 nL of test compounds in DMSO, 20-point 1:2 dilution starting from 20 μM (final concentration) in triplicate, were transferred to each well using an Agilent Bravo instrument outfitted with a pintool head. Cells were incubated at 37° C., 5% CO2 for 5 days followed by the addition of 30 μL of Cell TiterGlo (Promega; diluted 1:6 in water) to each well and luminescence values recorded using an EnVision plate reader. […]

[1] = test system: transcriptional activity of TEADs; assay: TEAD reporter assay (MCF7 TEAD-LUC reporter cells); assay type: cell-based; details: Homo sapiens, 24 hours, BrightGlo luminescence
Procedure: MCF7 TEAD-LUC reporter cells were obtained from BPS Bioscience, Inc. and cultured in DMEM medium (Corning, 10-013-CV) supplemented with 10% fetal bovine serum (Gibco, 10438-026), 1% penicillin-streptomycin (Gibco, 15070063), 1% non-essential amino acids (Gibco, 15070063), and 10 μg/mL insulin (Sigma, 10516). Cells were trypsinized, resuspended in growth medium, and diluted to a concentrated of 100,000 cells/mL. 5,000 cells, 50 μL of cell suspension, per well were then plated in a white 384-well plate (Corning) and incubated at 37° C., 5% CO2. After 24 hours incubation, 100 nL of test compounds in DMSO, 20-point 1:2 dilution starting from 20 μM (final concentration) in triplicate, were transferred to each well using an Agilent Bravo instrument outfitted with a pintool head. Cells were incubated at 37° C., 5% CO2 for 24 hours followed by the addition of 30 μL of BrightGlo (Promega; diluted 1:3 in water) to each well and luminescence values recorded using an EnVision plate reader.
The in vitro assay results of the compounds in the present invention were included in Table 1. The compounds described herein, inhibited the transcriptional activity of TEADs, as assessed by decreased luminance from a TEAD reporter cell line (MCF7 TEAD-LUC) in response to compound treatment.

| SMILES | IC50 (NCI-H226 cells) | IC50 [1] |
| --- | --- | --- |
| C=C(F)C(=O)N1CC=C(c2cccnc2Nc2ccc(C(F)(F)F)nc2)CC1 [Example 146, 2-fluoro-1-(2-((6-(trifluoromethyl)pyridin-3-yl)amino)-3′,6′-dihydro-[3,4′-bipyridin]-1′(2′H)-yl)prop-2-en-1-one] | 0.158 µM | 23.5 nM |
| C=C(F)C(=O)N1CC=C(c2cccnc2Nc2ccc(OC(F)(F)F)nc2)CC1 [Example 148, 2-fluoro-1-(2-((6-(trifluoromethoxy)pyridin-3-yl)amino)-3′,6′-dihydro-[3,4′-bipyridin]-1′(2′H)-yl)prop-2-en-1-one] | 0.341 µM | 66 nM |
| C=CC(=O)N1CCC(c2cccnc2Nc2ccc(C(F)(F)F)nc2)CC1 [Example 149, 1-(4-(2-((6-(trifluoromethyl)pyridin-3-yl)amino)pyridin-3-yl)piperidin-1-yl)prop-2-en-1-one] | 2.71 µM | 164 nM |
| C=C(F)C(=O)N1CCC(c2cccnc2Nc2ccc(C(F)(F)F)nc2)CC1 [Example 150, 2-fluoro-1-(4-(2-((6-(trifluoromethyl)pyridin-3-yl)amino)pyridin-3-yl)piperidin-1-yl)prop-2-en-1-one] | 39.5 µM | 4430 nM |
| C=CC(=O)N1CCC(c2cccnc2Nc2ccc(OC(F)(F)F)nc2)CC1 [Example 151, 1-(4-(2-((6-(trifluoromethoxy)pyridin-3-yl)amino)pyridin-3-yl)piperidin-1-yl)prop-2-en-1-one] | 1.05 µM | 188 nM |
| C=C(F)C(=O)N1CCC(c2cccnc2Nc2ccc(OC(F)(F)F)nc2)CC1 [Example 152, 2-fluoro-1-(4-(2-((6-(trifluoromethoxy)pyridin-3-yl)amino)pyridin-3-yl)piperidin-1-yl)prop-2-en-1-one] | 22.2 µM | 13500 nM |
| C=C(F)C(=O)N1CCC(c2cccnc2Oc2ccc(C(F)(F)F)nc2)CC1 [Example 156, 2-fluoro-1-(4-(2-((6-(trifluoromethyl)pyridin-3-yl)oxy)pyridin-3-yl)piperidin-1-yl)prop-2-en-1-one] | 0.083 µM | 13.7 nM |
| C=C(F)C(=O)N1CC=C(c2cccnc2Oc2cnc(C(F)(F)F)nc2)CC1 [Example 158, 2-fluoro-1-(2-((2-(trifluoromethyl)pyrimidin-5-yl)oxy)-3′,6′-dihydro-[3,4′-bipyridin]-1′(2′H)-yl)prop-2-en-1-one] | 0.027 µM | 3.9 nM |
| C=C(F)C(=O)N1CCC(c2cccnc2Oc2cnc(C(F)(F)F)nc2)CC1 [Example 160, 2-fluoro-1-(4-(2-((2-(trifluoromethyl)pyrimidin-5-yl)oxy)pyridin-3-yl)piperidin-1-yl)prop-2-en-1-one] | 2.94 µM | 1650 nM |
| C=CC(=O)N1CCN(c2ncccc2C(=O)N2CCC(F)(F)CC2)CC1 [Example 161, 1-(4-(3-(4,4-difluoropiperidine-1-carbonyl)pyridin-2-yl)piperazin-1-yl)prop-2-en-1-one] | > 20 µM | 1730 nM |
| C=CC(=O)N1CCN(c2ccccc2Nc2ccc(C(F)(F)F)cc2)CC1 [Example 162, 1-(4-(2-((4-(trifluoromethyl)phenyl)amino)phenyl)piperazin-1-yl)prop-2-en-1-one] | 0.192 µM | 1.1 nM |
| C=CC(=O)N1CCC(n2ccc(C(=O)c3ccc(C(F)(F)F)cc3)n2)CC1 [Example 163, 1-(4-(3-(4-(trifluoromethyl)benzoyl)-1H-pyrazol-1-yl)piperidin-1-yl)prop-2-en-1-one] | 5 µM | 10000 nM |
| C=CC(=O)N1CCC(n2nc(C(=O)c3ccc(C(F)(F)F)cc3)cc2C)CC1 [Example 165, 1-(4-(5-methyl-3-(4-(trifluoromethyl)benzoyl)-1H-pyrazol-1-yl)piperidin-1-yl)prop-2-en-1-one] | 5 µM | 19.8 nM |
| C=C(C)C(=O)N1CCN(c2nccnc2Nc2ccc(C(F)(F)F)nc2)CC1 [Example 177, 2-methyl-1-(4-(3-((6-(trifluoromethyl)pyridin-3-yl)amino)pyrazin-2-yl)piperazin-1-yl)prop-2-en-1-one] | > 20 µM | > 20000 nM |

From patent US20250206722A1, “SMALL MOLECULE INHIBITORS OF TEA DOMAIN FAMILY MEMBERS” (The Scripps Research Institute, priority 2022, published 2025)
